Reference: paper PMC9532703, “A novel small molecule RK-019 inhibits FGFR2-amplification gastric cancer cell proliferation and induces apoptosis in vitro and in vivo” (Frontiers in Pharmacology, 2022)

Key:
Test in all cases: Kinase selectivity panel
Format in all cases: biochemical
Conditions in all cases: read-out: Inhibition(%) @ 1 µM RK-019
[1] = target: T1, AAK1(h) (Homo sapiens, UniProt Q2M2I8)
T1 construct: purchased Eurofins Discovery Services (KinaseProfiler)
Method: (§1) Median-inhibitory concentration (IC50) and inhibition ratio of kinases by RK-019 was assessed by Eurofins Discovery Services (Dundee, United Kingdom) using the ATP-site competition binding assay in vitro. Firstly, gradient concentration of RK-019 against FGFRs, including FGFR1, FGFR2, FGFR3, and FGFR4, were tested. IC50 value was calculate by the GraphPad Prism software (v8.4.3, GraphPad Software, California, United States). Then, to measure the selectivity prolife of RK-019, a panel of 422 recombinant human kinases was screened at a concentration of 1 µM RK-019. Kinase MAP was drawn by webtools from Cell Signaling Technology, Inc. (www.cellsignal.com).

[2] = target: T2, ALK(h) (Homo sapiens, UniProt Q9UM73)
T2 construct: purchased Eurofins Discovery Services (KinaseProfiler)
Method: as §1

[3] = target: T3, ALK1(h) (Homo sapiens, UniProt P37023)
T3 construct: purchased Eurofins Discovery Services (KinaseProfiler)
Method: as §1

[4] = target: T4, ALK2(h) (Homo sapiens, UniProt Q04771)
T4 construct: purchased Eurofins Discovery Services (KinaseProfiler)
T4 sequence (Q04771 21-509): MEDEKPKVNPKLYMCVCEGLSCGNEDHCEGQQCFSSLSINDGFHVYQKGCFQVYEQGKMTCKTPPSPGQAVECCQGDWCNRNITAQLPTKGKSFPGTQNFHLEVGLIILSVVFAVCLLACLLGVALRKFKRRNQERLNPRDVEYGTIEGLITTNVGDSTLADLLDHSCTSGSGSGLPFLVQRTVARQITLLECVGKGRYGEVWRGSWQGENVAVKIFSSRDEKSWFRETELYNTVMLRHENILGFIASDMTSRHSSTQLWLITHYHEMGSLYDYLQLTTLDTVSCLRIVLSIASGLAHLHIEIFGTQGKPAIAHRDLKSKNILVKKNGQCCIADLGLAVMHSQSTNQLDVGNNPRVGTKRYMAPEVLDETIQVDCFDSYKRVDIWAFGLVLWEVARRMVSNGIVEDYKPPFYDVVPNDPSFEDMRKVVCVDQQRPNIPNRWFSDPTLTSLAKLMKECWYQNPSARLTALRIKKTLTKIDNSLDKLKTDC
Method: as §1

[5] = target: T5, B-Raf(h) (Homo sapiens, UniProt P15056)
T5 construct: purchased Eurofins Discovery Services (KinaseProfiler)
Method: as §1

[6] = target: T6, BIKe(h) (Homo sapiens, UniProt Q9NSY1)
T6 construct: purchased Eurofins Discovery Services (KinaseProfiler)
Method: as §1

[7] = target: T7, CDK7/cyclinH/MAT1(h) (Homo sapiens, UniProt P50613)
T7 construct: purchased Eurofins Discovery Services (KinaseProfiler)
Method: as §1

[8] = target: T8, CK1δ(h) (Homo sapiens, UniProt P48730)
T8 construct: purchased Eurofins Discovery Services (KinaseProfiler)
Method: as §1

[9] = target: T9, CK1ε(h) (Homo sapiens, UniProt P49674)
T9 construct: purchased Eurofins Discovery Services (KinaseProfiler)
Method: as §1

[10] = target: T10, CK2α2(h) (Homo sapiens, UniProt P19784)
T10 construct: purchased Eurofins Discovery Services (KinaseProfiler)
Method: as §1

[11] = target: T11, CLK1(h) (Homo sapiens, UniProt P49759)
T11 construct: purchased Eurofins Discovery Services (KinaseProfiler)
Method: as §1

[12] = target: T12, CaMKIIβ(h) (Homo sapiens, UniProt Q13554)
T12 construct: purchased Eurofins Discovery Services (KinaseProfiler)
T12 sequence (Q13554 whole entry): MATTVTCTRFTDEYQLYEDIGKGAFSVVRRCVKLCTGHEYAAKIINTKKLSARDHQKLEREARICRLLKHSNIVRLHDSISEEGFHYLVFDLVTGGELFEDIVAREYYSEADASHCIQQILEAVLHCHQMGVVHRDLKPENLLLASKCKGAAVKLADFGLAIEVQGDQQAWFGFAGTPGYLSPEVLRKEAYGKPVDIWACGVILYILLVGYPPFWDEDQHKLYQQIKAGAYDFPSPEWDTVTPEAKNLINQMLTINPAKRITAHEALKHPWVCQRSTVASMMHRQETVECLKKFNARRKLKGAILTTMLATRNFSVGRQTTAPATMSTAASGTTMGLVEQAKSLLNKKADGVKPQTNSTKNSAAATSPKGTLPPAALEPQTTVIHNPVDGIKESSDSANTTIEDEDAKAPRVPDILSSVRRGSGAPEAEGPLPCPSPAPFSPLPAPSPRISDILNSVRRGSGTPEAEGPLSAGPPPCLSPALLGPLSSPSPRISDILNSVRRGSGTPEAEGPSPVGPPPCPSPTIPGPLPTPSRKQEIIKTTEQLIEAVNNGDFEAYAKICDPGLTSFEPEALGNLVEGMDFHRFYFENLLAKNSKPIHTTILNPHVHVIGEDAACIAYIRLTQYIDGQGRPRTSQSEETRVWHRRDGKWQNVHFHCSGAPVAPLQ
Method: as §1

[13] = target: T13, CaMKIß(h) (Homo sapiens, UniProt Q6P2M8)
T13 construct: purchased Eurofins Discovery Services (KinaseProfiler)
Method: as §1

[14] = target: T14, Cdc7/cyclinB1(h) (Homo sapiens, UniProt O00311)
T14 construct: purchased Eurofins Discovery Services (KinaseProfiler)
Method: as §1

[15] = target: T15, IKKβ(h) (Homo sapiens, UniProt O14920)
T15 construct: purchased Eurofins Discovery Services (KinaseProfiler)
Method: as §1

[16] = target: T16, IKKε(h) (Homo sapiens, UniProt Q14164)
T16 construct: purchased Eurofins Discovery Services (KinaseProfiler)
T16 sequence (Q14164 whole entry): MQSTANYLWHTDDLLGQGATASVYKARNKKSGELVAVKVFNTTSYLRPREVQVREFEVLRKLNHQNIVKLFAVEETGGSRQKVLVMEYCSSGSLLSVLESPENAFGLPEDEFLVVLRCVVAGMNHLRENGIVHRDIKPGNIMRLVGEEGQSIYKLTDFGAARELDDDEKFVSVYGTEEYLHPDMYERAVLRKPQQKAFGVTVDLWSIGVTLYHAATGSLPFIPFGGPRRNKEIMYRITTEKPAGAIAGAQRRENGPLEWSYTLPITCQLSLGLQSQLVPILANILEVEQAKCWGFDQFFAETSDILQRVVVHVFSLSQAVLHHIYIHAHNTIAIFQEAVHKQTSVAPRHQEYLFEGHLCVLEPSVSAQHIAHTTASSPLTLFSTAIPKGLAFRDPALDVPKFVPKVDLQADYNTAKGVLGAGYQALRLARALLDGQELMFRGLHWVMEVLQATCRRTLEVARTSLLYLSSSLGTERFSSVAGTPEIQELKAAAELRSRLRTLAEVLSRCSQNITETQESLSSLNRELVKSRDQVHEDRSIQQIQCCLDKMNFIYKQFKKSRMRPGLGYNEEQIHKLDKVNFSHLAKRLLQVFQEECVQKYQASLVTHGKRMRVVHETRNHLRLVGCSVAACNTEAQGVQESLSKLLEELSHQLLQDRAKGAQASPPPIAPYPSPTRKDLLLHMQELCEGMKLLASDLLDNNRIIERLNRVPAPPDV
Method: as §1

[17] = target: T17, IRAK4(h) (Homo sapiens, UniProt Q9NWZ3)
T17 construct: purchased Eurofins Discovery Services (KinaseProfiler)
Method: as §1

[18] = target: T18, JNK2α2(h) (Homo sapiens, UniProt P45984)
T18 construct: purchased Eurofins Discovery Services (KinaseProfiler)
Method: as §1

[19] = target: T19, LOK(h) (Homo sapiens, UniProt O94804)
T19 construct: purchased Eurofins Discovery Services (KinaseProfiler)
Method: as §1

[20] = target: T20, Lyn(m) (Mus musculus, UniProt P25911)
T20 construct: purchased Eurofins Discovery Services (KinaseProfiler)
Method: as §1

[21] = target: T21, MAK(h) (Homo sapiens, UniProt P20794)
T21 construct: purchased Eurofins Discovery Services (KinaseProfiler)
Method: as §1

[22] = target: T22, MEK1(h) (Homo sapiens, UniProt Q02750)
T22 construct: purchased Eurofins Discovery Services (KinaseProfiler)
Method: as §1

[23] = target: T23, MEKK3(h) (Homo sapiens, UniProt Q99759)
T23 construct: purchased Eurofins Discovery Services (KinaseProfiler)
Method: as §1

[24] = target: T24, MINK(h) (Homo sapiens, UniProt Q8N4C8)
T24 construct: purchased Eurofins Discovery Services (KinaseProfiler)
Method: as §1

[25] = target: T25, Met(D1246N)(h) (Homo sapiens, UniProt P08581, D1228N)
T25 construct: purchased Eurofins Discovery Services (KinaseProfiler)
Method: as §1

[26] = target: T26, NEK11(h) (Homo sapiens, UniProt Q8NG66)
T26 construct: purchased Eurofins Discovery Services (KinaseProfiler)
Method: as §1

[27] = target: T27, PASK(h) (Homo sapiens, UniProt Q96RG2)
T27 construct: purchased Eurofins Discovery Services (KinaseProfiler)
T27 sequence (Q96RG2 whole entry): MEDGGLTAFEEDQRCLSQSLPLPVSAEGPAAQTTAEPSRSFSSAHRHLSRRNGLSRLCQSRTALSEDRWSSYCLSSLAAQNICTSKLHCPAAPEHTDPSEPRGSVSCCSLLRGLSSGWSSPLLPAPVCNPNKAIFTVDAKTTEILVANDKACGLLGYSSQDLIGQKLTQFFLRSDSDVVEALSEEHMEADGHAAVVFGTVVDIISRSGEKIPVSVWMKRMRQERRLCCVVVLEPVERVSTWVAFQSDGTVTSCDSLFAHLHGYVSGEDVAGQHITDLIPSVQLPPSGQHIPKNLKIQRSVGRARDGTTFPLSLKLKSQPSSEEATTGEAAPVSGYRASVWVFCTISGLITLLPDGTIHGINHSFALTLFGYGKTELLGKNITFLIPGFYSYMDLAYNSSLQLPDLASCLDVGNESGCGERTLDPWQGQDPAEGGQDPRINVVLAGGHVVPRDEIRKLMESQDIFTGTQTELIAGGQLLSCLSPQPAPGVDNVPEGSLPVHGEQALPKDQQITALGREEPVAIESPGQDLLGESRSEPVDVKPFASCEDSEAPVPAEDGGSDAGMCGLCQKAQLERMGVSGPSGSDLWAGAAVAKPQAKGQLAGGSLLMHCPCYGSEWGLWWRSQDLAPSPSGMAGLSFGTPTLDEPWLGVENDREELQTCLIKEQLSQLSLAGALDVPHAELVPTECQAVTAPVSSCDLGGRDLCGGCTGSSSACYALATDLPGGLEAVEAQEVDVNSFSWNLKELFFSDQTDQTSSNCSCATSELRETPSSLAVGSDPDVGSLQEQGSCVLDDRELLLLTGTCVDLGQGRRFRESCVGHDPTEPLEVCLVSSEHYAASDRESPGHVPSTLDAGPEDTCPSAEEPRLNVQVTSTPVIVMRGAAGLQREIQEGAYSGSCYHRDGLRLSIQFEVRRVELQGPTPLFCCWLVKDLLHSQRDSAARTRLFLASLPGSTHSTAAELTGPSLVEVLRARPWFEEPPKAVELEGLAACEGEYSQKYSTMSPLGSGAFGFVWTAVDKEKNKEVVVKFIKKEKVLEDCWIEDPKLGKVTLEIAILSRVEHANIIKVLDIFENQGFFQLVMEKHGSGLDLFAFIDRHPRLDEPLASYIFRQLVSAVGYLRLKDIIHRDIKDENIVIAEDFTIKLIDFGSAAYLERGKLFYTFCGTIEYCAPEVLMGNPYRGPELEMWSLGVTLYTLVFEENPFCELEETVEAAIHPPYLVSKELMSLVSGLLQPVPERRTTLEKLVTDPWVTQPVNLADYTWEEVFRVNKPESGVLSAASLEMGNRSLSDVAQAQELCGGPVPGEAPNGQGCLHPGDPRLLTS
Method: as §1

[28] = target: T28, PDGFRα(D842V)(h) (Homo sapiens, UniProt P16234, D842V)
T28 construct: purchased Eurofins Discovery Services (KinaseProfiler)
Method: as §1

[29] = target: T29, PI3 Kinase (p110a(E542K)/p85a)(m) (Mus musculus, UniProt P42337, E542K)
T29 construct: purchased Eurofins Discovery Services (KinaseProfiler)
Method: as §1

[30] = target: T30, PKD2(h) (Homo sapiens, UniProt Q9BZL6)
T30 construct: purchased Eurofins Discovery Services (KinaseProfiler)
Method: as §1

[31] = target: T31, Ron(h) (Homo sapiens, UniProt Q04912)
T31 construct: purchased Eurofins Discovery Services (KinaseProfiler)
Method: as §1

[32] = target: T32, Rsk3(h) (Homo sapiens, UniProt Q15349)
T32 construct: purchased Eurofins Discovery Services (KinaseProfiler)
T32 sequence (Q15349 whole entry): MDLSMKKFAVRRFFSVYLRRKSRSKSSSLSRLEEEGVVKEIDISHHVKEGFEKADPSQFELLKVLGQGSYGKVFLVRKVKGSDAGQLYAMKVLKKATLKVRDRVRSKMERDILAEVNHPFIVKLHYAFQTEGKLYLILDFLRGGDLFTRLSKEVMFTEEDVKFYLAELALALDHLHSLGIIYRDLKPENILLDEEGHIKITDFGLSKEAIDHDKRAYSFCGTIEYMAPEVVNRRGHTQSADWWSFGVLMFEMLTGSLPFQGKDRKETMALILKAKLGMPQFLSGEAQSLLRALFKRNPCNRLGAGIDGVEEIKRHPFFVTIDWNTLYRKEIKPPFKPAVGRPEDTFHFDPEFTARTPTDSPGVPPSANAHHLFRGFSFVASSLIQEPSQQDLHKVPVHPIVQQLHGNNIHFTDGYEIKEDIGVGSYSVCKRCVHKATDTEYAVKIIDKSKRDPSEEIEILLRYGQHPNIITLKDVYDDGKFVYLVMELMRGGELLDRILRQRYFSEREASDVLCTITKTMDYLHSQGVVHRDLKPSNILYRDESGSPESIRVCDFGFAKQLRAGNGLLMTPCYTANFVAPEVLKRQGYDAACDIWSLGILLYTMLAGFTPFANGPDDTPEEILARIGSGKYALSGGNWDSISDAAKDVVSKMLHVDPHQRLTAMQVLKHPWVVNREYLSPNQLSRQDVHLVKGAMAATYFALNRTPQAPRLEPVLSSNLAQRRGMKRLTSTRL
Method: as §1

[33] = target: T33, STK32B(h) (Homo sapiens, UniProt Q9NY57)
T33 construct: purchased Eurofins Discovery Services (KinaseProfiler)
Method: as §1

[34] = target: T34, Tie2 (h) (Homo sapiens, UniProt Q02763)
T34 construct: purchased Eurofins Discovery Services (KinaseProfiler)
T34 sequence (Q02763 23-1124): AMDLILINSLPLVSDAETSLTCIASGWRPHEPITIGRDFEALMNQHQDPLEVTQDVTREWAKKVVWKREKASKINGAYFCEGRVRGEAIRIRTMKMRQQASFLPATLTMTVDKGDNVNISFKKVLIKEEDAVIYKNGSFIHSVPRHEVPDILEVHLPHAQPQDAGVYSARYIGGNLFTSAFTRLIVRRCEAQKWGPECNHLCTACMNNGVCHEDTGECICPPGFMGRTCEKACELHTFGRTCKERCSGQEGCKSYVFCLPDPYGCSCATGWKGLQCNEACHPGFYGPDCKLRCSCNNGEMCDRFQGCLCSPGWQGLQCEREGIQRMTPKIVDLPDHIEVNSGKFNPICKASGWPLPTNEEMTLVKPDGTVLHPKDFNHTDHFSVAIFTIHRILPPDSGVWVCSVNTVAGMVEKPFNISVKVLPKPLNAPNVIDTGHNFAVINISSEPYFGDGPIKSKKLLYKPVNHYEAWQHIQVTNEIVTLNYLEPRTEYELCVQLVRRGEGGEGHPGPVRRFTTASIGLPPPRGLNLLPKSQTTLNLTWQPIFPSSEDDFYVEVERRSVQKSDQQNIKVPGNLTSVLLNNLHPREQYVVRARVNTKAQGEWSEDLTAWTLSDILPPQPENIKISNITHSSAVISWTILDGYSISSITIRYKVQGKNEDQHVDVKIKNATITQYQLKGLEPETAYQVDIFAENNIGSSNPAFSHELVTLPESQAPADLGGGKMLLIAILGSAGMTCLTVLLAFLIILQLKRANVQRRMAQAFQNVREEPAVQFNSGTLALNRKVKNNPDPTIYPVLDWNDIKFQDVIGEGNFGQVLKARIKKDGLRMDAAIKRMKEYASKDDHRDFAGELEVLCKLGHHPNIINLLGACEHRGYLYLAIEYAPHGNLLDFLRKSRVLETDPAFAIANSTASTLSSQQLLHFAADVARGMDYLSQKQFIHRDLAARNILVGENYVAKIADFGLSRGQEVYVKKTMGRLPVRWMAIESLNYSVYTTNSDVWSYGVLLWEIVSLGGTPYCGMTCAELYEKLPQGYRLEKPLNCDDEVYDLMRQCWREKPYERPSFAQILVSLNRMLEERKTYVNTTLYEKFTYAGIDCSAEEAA
Method: as §1

[35] = target: T35, Tie2(Y897S)(h) (Homo sapiens, UniProt Q02763, Y897S)
T35 construct: purchased Eurofins Discovery Services (KinaseProfiler)
T35 sequence (Q02763 23-1124 Y897S): as the sequence (Q02763 23-1124) above, with Y875S counted along it
Method: as §1

[36] = target: T36, TrkB(h) (Homo sapiens, UniProt Q16620)
T36 construct: purchased Eurofins Discovery Services (KinaseProfiler)
Method: as §1

[37] = target: T37, Wee1B(h) (Homo sapiens, UniProt P0C1S8)
T37 construct: purchased Eurofins Discovery Services (KinaseProfiler)
Method: as §1

Molecule `COc1cc(OC)cc(N(CCN[C@H](C)CO)c2ccc3ncc(-c4cnn(C)c4)c(=O)n3c2)c1` [RK-019, (R)-7-((3,5-dimethoxyphenyl) (2-((1-hydroxypropan-2-yl)amino)ethyl)amino)-3-(1-methyl-1H-pyrazol-4-yl)-4H-pyrido [1,2-a]pyrimidin-4-one] has an activity at 1 µM [1] of 91%, an activity at 1 µM [2] of 85% and an activity at 1 µM [3] of 98%. It also gave an activity at 1 µM [4] of 90%, an activity at 1 µM [5] of 124% and an activity at 1 µM [6] of 93%. The activity at 1 µM [7] was 108%, the activity at 1 µM [8] was 94% and the activity at 1 µM [9] was 99%. For the same molecule, the activity at 1 µM [10] was 105%, the activity at 1 µM [11] was 104% and the activity at 1 µM [12] was 80%. The activity at 1 µM [13] was 97%, the activity at 1 µM [14] was 87% and the activity at 1 µM [15] was 90%. It also gave an activity at 1 µM [16] of 107%, an activity at 1 µM [17] of 100% and an activity at 1 µM [18] of 99%. For the same molecule, the activity at 1 µM [19] was 76%, the activity at 1 µM [20] was 23% and the activity at 1 µM [21] was 110%. For the same molecule, the activity at 1 µM [22] was 79%, the activity at 1 µM [23] was 103% and the activity at 1 µM [24] was 133%. For the same molecule, the activity at 1 µM [25] was 89%, the activity at 1 µM [26] was 118% and the activity at 1 µM [27] was 96%. The activity at 1 µM [28] was 22%, the activity at 1 µM [29] was 99% and the activity at 1 µM [30] was 98%. For the same molecule, the activity at 1 µM [31] was 124%, the activity at 1 µM [32] was 100% and the activity at 1 µM [33] was 123%. It also gave an activity at 1 µM [34] of 105%, an activity at 1 µM [35] of 77% and an activity at 1 µM [36] of 94%. For the same molecule, the activity at 1 µM [37] was 107%.
